According to patent publication US12410148B2, “Antibody drug conjugates” (Pharma Mar, S.A., priority 2013, dated 2025):
≈ marks a conversion by molar mass, not a printed value. Where “and” joins values, the source holds several entries; their conditions need not be identical. Equal values may be shown once. Read-outs that look alike come from different tables or passages of the source.

Key:
MCF-7 cells = assay: In vitro cytotoxicity, SRB assay, 72 h dose-response; type: cell-based; settings: Homo sapiens, MCF7, 72 h
From the text: (§1) Nature Protocols, 1, 1112-1 116.

MDA-MB-231 cells = assay: as above; type: cell-based; settings: Homo sapiens, MDA-MB-231, 72 h
From the text: as §1

NB-4 cells = assay: In vitro cytotoxicity, MTT assay, 72 h dose-response; type: cell-based; settings: Homo sapiens, CD13+
Protocol: (§5) Briefly, MTT solution was added to the cell cultures at a final concentration of 0.5 mg/mL, and incubated for 1 to 4 hours at 37° C. until formazan crystals are formed. Culture medium is carefully removed from the cell cultures and formazan crystals resuspended in 100 μl DMSO. […] Cell survival was expressed as percentage of control, untreated cell survival.

U937 cells = assay: as above; type: cell-based, human; settings: CD13+, CD4+
Protocol: as §5

RPMI-8226 cells = assay: as above; type: cell-based, human; settings: CD13−, CD20−, CD5−, CD4−
Protocol: as §5

Karpas-299 cells = assay: as above; type: cell-based, human; settings: CD20−, CD5+, CD4+
Protocol: as §5

MOLT-4 cells = assay: as above; type: cell-based; settings: Homo sapiens, CD5+
Protocol: as §5

[1] = test system: Raji-clone #10 (high CD5 expression); assay: as above; type: cell-based; settings: Homo sapiens
Protocol: as §5

[2] = test system: Raji-clone #18 (null CD5 expression); assay: as above; type: cell-based; settings: Homo sapiens
Protocol: as §5

[3] = test system: NB4, U937, Raji and RPMI-8226 cells; assay: In vitro cytotoxicity, whole CD13 cell panel; settings: for IC50: Homo sapiens
From the text: (§2) All tumor cell lines used in this study were obtained from the American Type Culture Collection (ATCC), unless otherwise indicated; BT-474 (ATCC HTB-20, Breast Ductal Carcinoma), SK-BR-3 (ATCC HTB-30, Breast Adenocarcinoma) and HCC-1954 (ATCC CRL-2338, Breast Ductal Carcinoma), all HER2+; MDA-MB-231 (ATCC HTB-26, Breast Adenocarcinoma) and MCF-7 (ATCC HTB-22 Breast Adenocarcinoma, pleural effusion), all HER2-; SK-OV-3 (ATCC HTB-77, Ovary Adenocarcinoma), HER2+; NB-4 (Acute Promyelocytic Leukemia, APL, CD13+, M. Lanotte et al. (1991) NB4, a maturation inducible cell line with t(15;17) marker isolated from a human acute promyelocytic leukemia (M3). Blood 77, 1080-1086), (CD13+) and U937 (ATCC CRL-1 593.2, Histiocytic Lymphoma, CD13+ and CD4+); Raji (ATCC CCL-86, Burkitt's Lymphoma) (CD13−, CD20+, CD5−, and CD4−); RPMI-8226 (ATCC CRM-CCL-155, Multiple Myeloma) (CD13−, CD20−, CD5− and CD4−); Karpas-299 (DSMZ ACC-31, Non-Hodgkin's Lymphoma) (CD20−, CD5+, and CD4+); MOLT-4 (ATCC CRL-1 582, Acute Lymphoblastic Leukemia, CD5+). In addition, the two Raji cell (ATCC CCL-86, Burkitt's Lymphoma) clones used in this study Raji-clone #10 (high CD5 expression) and Raji-clone18 (null CD5 expression), were provided by Dr. Juan M. Zapata (Instituto de Investigaciones Biomedicas “Alberto Sols”, CSIC-UAM, Madrid, Spain). Cells were maintained at 37° C., 5% CO 2 and 95% humidity in Dulbecco's Modified Eagle's Medium (DMEM) (for MCF and MDA-MB-231 cells), RPMI-1640 (for SK-BR-3, HCC-1954, NB-4, U937, Raji, RPMI-8226, Karpas-299, MOLT-4, Raji-clone #10 and Raji-clone #18 cells), RPMI-1640+1% ITS (for BT-474 cells) or McCOyS (for SK-OV-3 cells), all media supplemented with 10% Fetal Calf Serum (FCS) and 100 units/mL penicillin and streptomycin.
(§3) For suspension cells: A standard metabolic assay using MTT (3-(4,5-Dimethylthiazol-2-yl)-2,5-diphenyltetrazolium bromide) was adapted for quantitative measurement of cell growth and cytotoxicity, as described in T. Mosmann (1983) Rapid colorimetric assay for cellular growth and survival: Application to proliferation and cytotoxicity assays. J. Immunol. Meth., 65, 55-63. Briefly, MTT solution was added to the cell cultures at a final concentration of 0.5 mg/mL, and incubated for 1 to 4 hours at 37° C. until formazan crystals are formed. Culture medium is carefully removed from the cell cultures and formazan crystals resuspended in 100 μl DMSO. After mixing to assure solubilization, the quantity of formazan (presumably directly proportional to the number of viable cells) is measured by recording changes in absorbance at 570 nm using a plate reading spectrophotometer. Cell survival was expressed as percentage of control, untreated cell survival.
(§4) The IC50 value refers to the concentration of compound inducing a 50% of cell death as compared to the control cell survival.
The in vitro cytotoxic activity of ADC9 along with the parent cytotoxic Compounds 1 and 4, was evaluated against different human tumor cell lines expressing or not the CD13 receptor, including NB4 and U937 (CD13 positive cells) and Raji and RPMI-8226 (CD13 negative cells). Standard dose-response (DR) curves for 72 hours were performed.

[4] = test system: Raji, RPMI-8226 and Karpas-299 cells; assay: In vitro cytotoxicity, whole CD20 cell panel; settings: Homo sapiens
From the text: as §2, §3, §4
The in vitro cytotoxic activity of ADC12 along with the parent cytotoxic Compounds 1, 4, and 40, was evaluated was assayed against different human cancer cell lines expressing or not the CD20 antigen, including Raji (CD20 positive cells); RPMI-8226 and Karpas-299 (CD20 negative cells). Standard dose-response (DR) curves for 72 hours were performed.

[5] = test system: Karpas-299, MOLT-4, Raji and RPMI-8226 cells; assay: In vitro cytotoxicity, whole CD5 cell panel; settings: for IC50: Homo sapiens
From the text: as §2, §3, §4
The in vitro cytotoxic activity of ADC14 along with the parent cytotoxic Compounds 1, 4, and 40, was evaluated against different human cancer cell lines expressing or not the CD5 antigen, including Karpas-299 and MOLT-4 (both CD5+); Raji and RPMI-8226 (both CD5−). Standard dose-response (DR) curves for 72 hours were performed.

[6] = Homo sapiens, RPMI-8226, 72 h, read-out: IC50
[7] = Homo sapiens, KARPAS-299, 72 h, read-out: IC50
[8] = read-out: IC50 values across the different cell lines tested (range)
[9] = read-out: mean IC50 value across the whole cell panel

With COC1=CC[C@@H]([C@@H](C)/C=C(C)/C=C\C=C/C(=O)N[C@H](C(=O)N/C=C\C[C@H](C/C=C(\C)Cl)OC(=O)NCCCNC(=O)CCCCCN2C(=O)C=CC2=O)C(C)(C)C)OC1=O [Compound 1] the IC50 (MCF-7 cells; HER2−, 72 h, read-out: IC50) was 0.0037 µg/mL and 4.32 nM, the IC50 (MDA-MB-231 cells; HER2−, 72 h, read-out: IC50) was 0.0028 µg/mL and 3.27 nM and the IC50 (NB-4 cells) was 0.000805 µg/mL and 0.939 nM. For the same compound, the IC50 (U937 cells; Homo sapiens, U-937, 72 h, read-out: IC50) was 0.00165 µg/mL and 1.93 nM, the IC50 (RPMI-8226 cells; [6]) was 0.0025 µg/mL and 2.92 nM and the IC50 (Karpas-299 cells; [7]) was 0.0019 µg/mL and 2.22 nM. For the same compound, the IC50 (MOLT-4 cells) was 0.00335 µg/mL and 3.91 nM, the IC50 ([1]; C#10 (high CD5)) was 0.0029 µg/mL and 3.39 nM and the IC50 ([1]; clone #10, CD5 expressing) was 3.4 nM. The IC50 ([2]; C#18 (null CD5)) was 0.038 µg/mL and 44.4 nM, the IC50 ([2]; clone #18, CD5 null) was 44 nM and the IC50 [3, 8] was 0.0008 µg/mL to 0.0063 µg/mL and 0.94 nM to 7.3 nM. The IC50 [3, 9] was 0.0028 µg/mL and 3.3 nM, the IC50 [4, 8] was 0.0016 µg/mL to 0.0028 µg/mL and 1.9 nM to 3.3 nM and the IC50 [4, 9] was 0.0021 µg/mL and 2.5 nM. The IC50 [5, 8] was 1.8 to 11 ng/mL (≈ 2.1 to 12.8 nM) and the IC50 [5, 9] was 0.0046 µg/mL and 5.3 nM.
COC1=CC[C@@H]([C@@H](C)/C=C(C)/C=C\C=C/C(=O)N[C@H](C(=O)N/C=C\C[C@H](C/C=C(\C)Cl)OC(=O)NCCCN)C(C)(C)C)OC1=O [Compound 4] was tested, and the IC50 (MCF-7 cells; HER2−, 72 h, read-out: IC50) was 0.000415 µg/mL and 0.626 nM, the IC50 (MDA-MB-231 cells; HER2−, 72 h, read-out: IC50) was 0.00031 µg/mL and 0.468 nM and the IC50 (NB-4 cells) was 7.9e-05 µg/mL and 0.12 nM. For the same compound, the IC50 (U937 cells) was 0.000278 µg/mL, the IC50 (U937 cells; read-out: IC50) was 0.419 nM and the IC50 (RPMI-8226 cells) was 0.00057 µg/mL. For the same compound, the IC50 (RPMI-8226 cells; read-out: IC50) was 0.859 nM, the IC50 (RPMI-8226 cells; [6]) was 0.000358 µg/mL and 0.539 nM and the IC50 (Karpas-299 cells; read-out: IC50) was 1.38 nM. For the same compound, the IC50 (Karpas-299 cells; [7]) was 0.00093 µg/mL and 1.4 nM, the IC50 (MOLT-4 cells) was 0.00091 µg/mL and 1.37 nM and the IC20 ([1]; C#10 (high CD5)) was 0.00465 µg/mL and 7.01 nM. The IC50 ([1]; C#10 (high CD5)) was 0.0099 µg/mL and 14.9 nM, the IC50 ([1]; clone #10, CD5 expressing) was 15.7 nM and the IC20 ([2]; C#18 (null CD5)) was 0.00677 µg/mL and 10.2 nM. For the same compound, the IC50 ([2]; C#18 (null CD5)) was > 15.1 nM and > 0.01 µg/mL, the “mean IC50 value across the whole cell panel” value ([3]; CD13+ and CD13− lines) was 1.2 nM and the IC50 [3, 8] was 7.9e-05 µg/mL to 0.00265 µg/mL and 0.12 nM to 4 nM. For the same compound, the IC50 [3, 9] was 0.00084 µg/mL and 1.2 nM, the IC50 [4, 8] was 0.00057 µg/mL to 0.0014 µg/mL and 0.86 nM to 2.1 nM and the IC50 [4, 9] was 0.00097 µg/mL and 1.5 nM. The IC50 [5, 8] was 0.00063 µg/mL to 0.0027 µg/mL and 0.95 nM to 4.1 nM, the IC50 [5, 9] was 0.0013 µg/mL and 1.9 nM and the “reduction of cytotoxic activity as compared to Compound 40” value ([5]; amine containing group) was “around 1 log”.
For COC1=CC[C@@H]([C@@H](C)/C=C(C)/C=C\C=C/C(=O)N[C@H](C(=O)N/C=C\C[C@H](C/C=C(\C)Cl)OC(N)=O)C(C)(C)C)OC1=O [Compound 40], the IC50 (MCF-7 cells) was 0.000132 µg/mL and 0.218 nM, the IC50 (MDA-MB-231 cells) was 0.000173 µg/mL and 0.284 nM and the IC50 (NB-4 cells) was 3.1e-05 µg/mL and 0.052 nM. The IC50 (U937 cells) was 7.9e-05 µg/mL, the IC50 (U937 cells; read-out: IC50) was 0.131 nM and the IC50 (RPMI-8226 cells) was 8.65e-05 µg/mL and 0.00012 µg/mL. The IC50 (RPMI-8226 cells; read-out: IC50) was 0.143 nM and 0.198 nM, the IC50 (Karpas-299 cells) was 0.00013 µg/mL and the IC50 (Karpas-299 cells; read-out: IC50) was 0.142 nM and 0.215 nM. For the same compound, the IC50 (MOLT-4 cells) was 9.3e-05 µg/mL and 0.154 nM, the IC50 ([1]; C#10 (high CD5)) was 0.495 ng/mL and the IC50 ([1]; clone #10, CD5 expressing) was 0.817 nM. The IC50 ([2]; C#18 (null CD5)) was 0.89 ng/mL, the IC50 ([2]; clone #18, CD5 null) was 1.47 nM and the IC50 [3, 8] was 0.031 to 0.17 ng/mL (≈ 0.0511 to 0.28 nM). For the same compound, the IC50 [3, 9] was 8.6e-05 µg/mL and 0.14 nM, the IC50 [4, 8] was 8.6e-05 µg/mL to 0.00011 µg/mL and 0.14 nM to 0.19 nM and the IC50 [4, 9] was 9.6e-05 µg/mL and 0.16 nM. For the same compound, the IC50 [5, 8] was 7.5e-05 µg/mL to 0.00036 µg/mL and 0.12 nM to 0.59 nM and the IC50 [5, 9] was 0.00016 µg/mL and 0.26 nM.
